Values joined by “and” are separate entries in the source; they are usually repeats but may differ in a detail not shown here. Identical values can stand only once. Like-named read-outs stand apart in the source and are kept apart here.
Tests used:
Assay type in all cases: cell-based
HCI-037 PDxO cells = test: QPI on cells from patient-derived organoid HCI-037 (primary lesion); conditions: HCI-037, 48 h imaging, 3-parameter Hill model
Experimental: (§1) In some embodiments, the QPI microscope system 110 performs QPI on cells from patient-derived organoids and direct-from-patient samples. For example, the electronic controller 155 analyzes data on cells from a set of 5 organoids representing samples collected from two patients, as illustrated by a workflow 3400 in FIG. 24. The workflow 3400 is an experiment workflow illustrating how assays are analyzed by the QPI microscope system 110. In some embodiments, the QPI microscope system 110 images cells for 48 h, and uses an automatic segmentation algorithm, via the electronic controller 155, to identify individual cells from background, as shown in images 3405 and 3410 of FIG. 24. […] The electronic controller 155 determines the mass of each cell by summing the cell mass over the segmented area. In some embodiments, plots of mass over time reveal single cell growth rates, as shown by graph 3415 of FIG. 24. The graph 3415 is a mass vs. time plot showing DMSO treated cells growing cells at a typical location. Cells outlined in green are shown as green on the plot, other growing cells are shown in purple. The electronic controller 155 determine the specific growth rate (SGR) by fitting a line to time-series mass measurements and normalizing by an initial mass predicted by the fit to account for the effect of cell size on growth rate. The electronic controller 155 fits SGR as a function of dose to a sigmoidal dose response curve using a 3-parameter Hill model to extract dose response measurements, as shown by graph 3420 of FIG. 24. […] In some embodiments, EC50 measured by the QPI microscope system 110 is strongly concordant with gold standard techniques such as CTG over 27 conditions (e.g., 9 compounds, 3 breast cancer cell lines). […] As with cell line data, QPI data on cells from PDxO resolves differences in temporal dynamics of response to therapy, as shown in graph 3425 of FIG. 24. […] In some embodiments, the electronic controller 155 is configured to determine a drug response of each of the plurality of treatment samples from patient derived organoids.
The graphs 3500 includes graph A of the graphs 3500 showing normalized mass vs. time for HCI-037 (primary), HCI-038 (metastatic), and HCI-039 (pleural effusion) showing reduction in growth as concentration increases. Graphs B, C, D, and E of the graphs 3500 show dose response plots showing the differential response between different disease models. Graphs F, G, H, and I of the graphs 3500 show Hellinger distance vs. time plots showing the time of response for the different models treated with various therapies. In some embodiments, HCI-037, HCI-038, and HCI-039, PDxO models are used that are derived from primary lesion, bone metastasis, and pleural effusion, respectively, at different time points from a single patient during the course of treatment and progressive disease. In some embodiments, the electronic controller 155 is configured to determine a difference drug response from patient derived organoids. In some embodiments, the patient derived organoids are tumor organoids.

MDA-MB-231 cells = test: CellTiter-Glo (CTG) ATP viability assay, MDA-MB-231; conditions: for Min Asymptote: MDA-MB-231, Hill fit of luminescence normalized to solvent control, one line per replicate; for DoR CTG: depth of response
Experimental: CTG (e.g., read by the CTG reader 115) is a cell viability assay that quantifies the amount of ATP present at the end of an experiment as an indicator of the number of live cells. The electronic controller 155 measures ATP content in each condition as a readout by a luminescent signal, which is normalized by the luminescence of the control (e.g., a control well) to determine cell viability relative to on-plate controls. In some embodiments, the CTG assay is performed by first removing 100 μL of media from each well on the well-plate 105, which is then replaced with an equal amount of CellTiter-Glo reagent (e.g., Promega, G7572). Assayed plates may be shaken at 500 RPM for 20 minutes and allowed to rest for 10 minutes. In some instances, 100 μL of volume from each well is transferred to a white 96-well plate (e.g., Perkin Elmer, 6005680). The electronic controller 155 collects luminescence data from each well using an Envision plate reader (e.g., Perkin Elmer) and normalized against the solvent control to measure ATP content. The electronic controller 155 fits a 4-parameter hill curve to the dose response to determine the EC50 and depth of response.

[1] = test system: primary tumor cells (Patient #1); test: QPI on primary cells after two-week expansion, Patient #1; conditions: Patient #1
Experimental: In some embodiments, the QPI microscope system 110 applies multiparametric QPI to primary cells from two clinical samples stored in cell bank at, for example, the Huntsman Cancer Institute plated after thawing from liquid nitrogen and CD45+ depleted to reduce the number of immune cells, as shown in FIG. 26.
For example, the primary cells are plated as a 2D monolayer in Clever's complete medium in a 96 well plate (e.g., the well-plate 105) and are allowed to acclimate to cell culture conditions for 18 h prior to dosing with treatments assigned to each patient by a physician. […] The image 3600 is a QPI image of primary cells from a direct from thaw patient derived sample. […] The graph 3610 is a histogram of cell mass used to computationally filter, using the electronic controller 155, for low mass cells (shown in red in the image 3600 and the graph 3605). By using a cutoff between the peaks at, for example, 72 pg, low mass cells can be isolated that are not growing and remove such cells from analysis. […] Using this cutoff, the electronic controller 155 measures the dose response for cells in each condition to determine the EC50 and DoR for each condition studied for the primary cells, as shown in the graph 3615. The graph 3615 is a dose response plot for primary cells treated with therapies assigned to the patient by a physician. […] In some embodiments, the electronic controller 155 determines a drug response in cells from patient derived samples. For example, the electronic controller 155 determines the drug response in therapy treatment samples from patient derived samples.
In some embodiments, both samples are expanded from primary cells in 2D culture using optimized ex vivo culture conditions for 2 weeks, changing media every 3 days to further purify the tumor cells, as shown in a workflow 3700 of FIG. 27.

HCI-038 PDxO cells = test: QPI on cells from patient-derived organoid HCI-038 (bone metastasis); conditions: HCI-038, bone metastasis
Experimental: In some embodiments, the QPI microscope system 110 performs QPI on cells from patient-derived organoids and direct-from-patient samples. For example, the electronic controller 155 analyzes data on cells from a set of 5 organoids representing samples collected from two patients, as illustrated by a workflow 3400 in FIG. 24. The workflow 3400 is an experiment workflow illustrating how assays are analyzed by the QPI microscope system 110. In some embodiments, the QPI microscope system 110 images cells for 48 h, and uses an automatic segmentation algorithm, via the electronic controller 155, to identify individual cells from background, as shown in images 3405 and 3410 of FIG. 24. […] The electronic controller 155 determines the mass of each cell by summing the cell mass over the segmented area. In some embodiments, plots of mass over time reveal single cell growth rates, as shown by graph 3415 of FIG. 24. The graph 3415 is a mass vs. time plot showing DMSO treated cells growing cells at a typical location. Cells outlined in green are shown as green on the plot, other growing cells are shown in purple. […] In some embodiments, EC50 measured by the QPI microscope system 110 is strongly concordant with gold standard techniques such as CTG over 27 conditions (e.g., 9 compounds, 3 breast cancer cell lines). […]

HCI-039 PDxO cells = test: QPI on cells from patient-derived organoid HCI-039 (pleural effusion); conditions: HCI-039, pleural effusion
Experimental: as §1, with “organoids. […]” for “organoids.”

[2] = MDA-MB-231 cell line, CellTiter-Glo
[3] = Homo sapiens, MDA-MB-231, 72 h, 72 h CTG, MDA-MB-231, Hill fit, read-out: log10(EC50) (converted)
[4] = Homo sapiens, MDA-MB-231, MDA-MB-231 cell line, CellTiter-Glo, read-out: EC50, CTG
[5] = Homo sapiens, MDA-MB-231, 24 h, 24 h CTG, MDA-MB-231, Hill fit, read-out: log10(EC50) (converted)

SMILES	dose response (SGR vs dose) (HCI-037 PDxO cells)	Hill Slope (MDA-MB-231 cells; 24 h CTG, MDA-MB-231, Hill fit)	log10(EC50) (MDA-MB-231 cells; 24 h CTG, MDA-MB-231, Hill fit)	Min Asymptote (MDA-MB-231 cells; 24 h CTG)	log10(EC50) (MDA-MB-231 cells; 72 h CTG, MDA-MB-231, Hill fit)	Min Asymptote (MDA-MB-231 cells; 72 h CTG)	EC50 (MDA-MB-231 cells; MDA-MB-231 cell line, CellTiter-Glo, read-out: EC50, CTG)	DoR CTG (MDA-MB-231 cells; [2])	Hill Slope (MDA-MB-231 cells; 72 h CTG, MDA-MB-231, Hill fit)	EC50 (MDA-MB-231 cells; [3])	EC50 (MDA-MB-231 cells; [4])	EC50 (MDA-MB-231 cells; [5])	EC50 compared with eribulin [1]	response compared with primary lesion model (HCI-038 PDxO cells)	response compared with primary lesion model (HCI-039 PDxO cells)
CCC(=C(c1ccc(O)cc1)c1ccc(OCCN(C)C)cc1)c1ccccc1 [4HT, 4-hydroxy-Tamoxifen]	strong response	5.351	−0.5158	0.393	−0.9458	0.003315 and 0.01516 (2×)	6900 nM	1.0	–	–	–	–	–	–	–
O=c1[nH]cc(F)c(=O)[nH]1 [5FU, 5-Fluorouracil]	–	–	–	–	–	0.4937	–	0.5	1.997	6000 nM	6000 nM	–	–	–	–
CC(=O)O[C@@]12CO[C@@H]1C[C@H](O)[C@@]1(C)C(=O)[C@H](O)C3=C(C)[C@@H](OC(=O)[C@H](O)[C@@H](NC(=O)OC(C)(C)C)c4ccccc4)C[C@@](O)([C@@H](OC(=O)c4ccccc4)[C@H]21)C3(C)C [Docetaxel]	–	7.175	–	0.8491	2.342	0.3348 and 0.2561	–	0.7	–	3.96 nM	–	13.7 nM	–	–	–
COc1cccc2c1C(=O)c1c(O)c3c(c(O)c1C2=O)C[C@@](O)(C(=O)CO)C[C@@H]3O[C@H]1C[C@H](N)[C@H](O)[C@H](C)O1 [Doxorubicin]	strong response	1.125	–	0.4072	0.5401	0.01711 and 0.03777 (2×)	–	1.0	0.8064 and 0.7906	204 nM	300 nM	1250 nM	lower EC50 than eribulin	–	–
C[C@]12CC[C@@H]3c4ccc(O)cc4C[C@@H](CCCCCCCCC[S+]([O-])CCCC(F)(F)C(F)(F)F)[C@H]3[C@@H]1CC[C@@H]2O (some centres unmarked) [Fulvestrant]	–	–	–	–	–	0.01999	–	1.0	0.7641	31400 nM	31400 nM	–	–	–	–
CC(=O)c1c(C)c2cnc(Nc3ccc(N4CCNCC4)cn3)nc2n(C2CCCC2)c1=O [Palbociclib]	–	6.945	–	0.2202	–	0.01895 and 7.98E−09	–	0.7	–	–	–	14200 nM	–	–	–
CC[C@]1(O)C[C@@H]2CN(CCc3c([nH]c4ccccc34)[C@@](C(=O)OC)(c3cc4c(cc3OC)N(C)[C@H]3[C@@](O)(C(=O)OC)[C@H](OC(C)=O)[C@]5(CC)C=CCN6CC[C@]43[C@@H]65)C2)C1 [Vinblastine]	lesser response	0.3445	–	0.5659	–	0.06356 and 0.2911	–	1.0	–	–	3000 nM	1830 nM	–	stronger response	stronger response

Source: patent US20250052985A1, “SYSTEM AND METHOD FOR QUANTITATIVE PHASE IMAGING FOR MULTI-PARAMETRIC SCREENING OF TUMOR THERAPY RESPONSE” (UNIVERSITY OF UTAH RESEARCH FOUNDATION, priority 2023, published 2025)
